Test results taken from patent US20020082200A1, “Use of inhibitors of human S-CD23” (SmithKline Beecham p.1.c., priority 1994, published 2002).

What was measured:
Type in all cases: cell-based
[1] = system: soluble CD23; test: Inhibition of release of soluble CD23 from CD23-transfected CHO cells (Procedure 1); conditions: CHO cells transfected with alpha form of CD23, 6 hours, ELISA of supernatant; read-out: IC50 (concentration which inhibits the release of soluble CD23 by 50% relative to the control culture)
Protocol: The ability of test compounds to inhibit the release of soluble CD23 was investigated by use of the following procedure.
Adherent Chinese Hamster Ovary cells which had been transfected with the alpha form of CD23 were grown in microtitre plates. Cells were grown to confluence in α-MEM medium with 10% foetal calf serum, 2 mM glutamine containing 800 micro g/ml G418. Medium was removed and the cells washed with sterile phosphate buffered saline. Test compounds were dissolved in dimethyl sulphoxide at a stock concentration of 20 mM, then diluted 1 in 200 with α-MEM containing 800 micro g/ml G418 (no foetal calf serum). […] of the diluted compounds were added to the adherent cells in triplicate wells. Appropriate control cultures were set up in triplicate. The plates were incubated for 6 hours at 37° C., 95% air/5% CO2 in a humidified incubator, then centrifuged at 200× g for 3 minutes. A specific ELISA for CD23, obtained from The Binding Site Limited, Institute of Research and Development, Birmingham England, was used to measure CD23 levels in the culture supernatants.

[2] = system: Human tonsillar B lymphocytes; test: Inhibition of formation of human IgE in vitro, tonsillar B lymphocytes with IL4 and anti-CD40 (Procedure 4); conditions: 11 days, ELISA, stimulated control 11.7, TCM 1.9
Protocol: (§1) The ability of test compounds to inhibit the formation of human IgE in vitro was investigated using the following procedure:
Human tonsillar B lymphocytes were suspended in RPMI 1640 medium containing 10% foetal calf serum, 2 mM glutamine, 50 micro M 2-mercaptoethanol and 50 micro g/ml gentamycin (TCM) at a concentration of 1.25×10^6 cells/ml. 800 micro l of the cell suspension were aliquoted into the wells of a 48 well plate. 100 micro l of TCM or IL4 at 100 ng/ml and antibody to CD40 at 10 microg/ml was added in quadriplicate to the appropriate wells, followed by 100 micro l of TCM or 10× the final concentration of compound under investigation. Test compounds are dissolved in DMSO at a stock dilution of 10^−2M diluted 1 in 100 in TCM and then as above. The plates are incubated for 11 days at 37° C. in a 95% air/5% CO2 humidified incubator. At the end of the culture period the supernatents were removed from the wells and centrifuged (200× g for 10 minutes) to remove any non-adherent cells. There was no toxicity as assessed by trypan dye exclusion. The IgE concentration in the supernatants was measured by ELISA.

[3] = system: Human peripheral blood mononuclear cells; test: Inhibition of formation of human IgE in vitro, peripheral blood mononuclear cells with IL4 (Procedure 3); conditions: 12 days, ELISA, IL4 alone 72.4, TCM 0.25
Protocol: as §1
Human peripheral blood mononuclear cells were separated by centrifugation over Ficoll-Paque (Pharmacia). The cells were suspended in RPMI 1640 medium containing 10% foetal calf serum, 2 mM glutamine, 50 microM 2-mercaptoethanol and 50 micro g/ml gentamycin (TCM) at a concentration of 1.25×10^6 cells/ml. 800 micro l of the cell suspension were aliquoted into the wells of a 48 well plate. […] Test compounds are dissolved in dimethylsulphoxide (DMSO) at a stock dilution of
10^−2M diluted 1 in 100 in TCM and then as above. The plates are incubated for 12 days at 37° C. in a 95% air/5% CO2 humidified incubator. At the end of the culture period the supernatants were removed with the wells and centrifuged (200× g for 10 minutes) to remove any non-adherent cells. There was no toxicity as assessed by trypan blue dye exclusion. The IgE concentration in the supernatants was measured by ELISA.

Structure (SMILES) | IC50 [1] | other results
CNC(=O)[C@H](Cc1ccc(OC)cc1)NC(=O)[C@H](CC(C)C)[C@@H](S)CC(N)=O [P6, 3-(S)-Mercapto-N^1-[1-(S)-[(methylamino)carbonyl]-2-(4-methoxyphenyl)ethyl]-2-(S)-(2-methylpropyl)pentanediamide] | 60 µM | 
CNC(=O)[C@@H](Cc1ccccc1)NC(=O)[C@H](CC(C)C)[C@H](CSc1cccs1)C(=O)N[O-].[Na+] [P1, [4-(N-Hydroxyamino)-2-(R)-isobutyl-3-(S)-(2-thiophenethiomethyl)succinyl]-(S)-phenylalanine-N-methylamide, Sodium Salt] | 0.05 µM | IgE ng/ml (mean +/− sem) ([2]; IL4 (10 ng/ml) and anti CD40 (1 micro g/ml) with compound at 10^−5 M): 2.9 ± 0.2 ng/mL; IgE ng/ml (mean +/− sem) ([2]; IL4 (10 ng/ml) and anti CD40 (1 micro g/ml) with compound at 10^−6 M): 4.3 ± 0.6 ng/mL; IgE ng/ml (mean +/− sem) ([2]; IL4 (10 ng/ml) and anti CD40 (1 micro g/ml) with compound at 10^−7 M): 6.2 ± 0.5 ng/mL; IgE ng/ml (mean +/− sem) ([3]; IL4 (5 ng/ml) with compound at 10^−5 M): 3.2 ± 1.9 ng/mL; IgE ng/ml (mean +/− sem) ([3]; IL4 (5 ng/ml) with compound at 10^−6 M): 21.3 ± 16.5 ng/mL; IgE ng/ml (mean +/− sem) ([3]; IL4 (5 ng/ml) with compound at 10^−7 M): 68.8 ± 21.8 ng/mL
CNC(=O)[C@H](Cc1c[nH]c2ccccc12)NC(=O)[C@H](CC(C)C)[C@@H](S)CC(=O)OC(C)C [P5, Isopropyl 3-(S)-mercapto-6-methyl-4-(S)-[[[1(S)-[(methylamino)carbonyl]-2-(3-indolyl)ethyl]amino]carbonyl]heptanoate] | 60 µM | 

More lines, main results first:

IC50 [1] | Structure (SMILES) | other results
3.35 µM | CNC(=O)[C@@H](Cc1ccc(OC)cc1)NC(=O)C(CC(=O)NO)CC(C)C (stereo partly drawn) [P3, N-[3-(N′-Hydroxycarboxamido)-2-(2-methylpropyl)-propanoyl]-(S)-O-methyl-L-tyrosine-N-methylamide] | 
30 µM | CC[C@@H](N[C@@H](CC(C)C)C(=O)N[C@@H](Cc1ccc(OC)cc1)C(=O)NC)P(=O)(O)O [P7, N-[N-((S)-1-Phosphonopropyl)-(S)-leucyl]-O-methyl-(S)-tyrosine N-methylamide] | 
2.2 µM | CNC(=O)[C@H](Cc1c[nH]c2ccccc12)NC(=O)[C@H](CC(C)C)[C@@H](S)CC(=O)OC [P4, Methyl 3-(S)-mercapto-6-methyl-4-(S)-[[[1(S)-[(methylamino)carbonyl]-2-(3-indolyl)ethyl]amino]carbonyl]heptanoate] | 
